Data on 26 compounds can be found in publication PMC9868654, “Discovery of a potent olaparib–chlorambucil hybrid inhibitor of PARP1 for the treatment of cancer” (Frontiers in Pharmacology, 2023).

The target of one test is PARP1 (Homo sapiens, UniProt P09874). The test can be described thus: PARP1 enzyme inhibitory assay. To be noted: mean of three experiments. Format: biochemical.
Another test concerns SW620 cells. The test can be described thus: In vitro antiproliferative assay (CCK-8). Format: cell-based. To be noted: Homo sapiens, SW-620; SW620, without BRCA mutations; CCK-8, 72 h; mean of three. Here is the method:
(§1) The proliferation of cancer cells was tested by CCK-8 assay. Briefly, cells were seeded in 96-well plates at approximately 5 × 10^3 cells per well. The cells were treated with test compounds after 24 h of incubation. CCK-8 reagent ([…]) was added to each well after 72 h of incubation, and the cells were then incubated at 37°C for 4 h. The light absorbance at 450 nm was measured using an Opsys microplate reader (Dynex Technologies, Chantilly, VA, United States). Results are illustrated as percentage viability normalized to DMSO-treated control cells.

For the next test, the system named is HCC1937 cells. Briefly: In vitro antiproliferative assay (CCK-8). Type of test: cell-based. Conditions: Homo sapiens; HCC1937, BRCA-mutated; CCK-8, 72 h; mean of three. Here is the method:
as §1

The test system of another test is Hela cells. Briefly: In vitro antiproliferative assay (CCK-8). To be noted: Homo sapiens, without BRCA mutations, CCK-8, 72 h, mean of three. Type of test: cell-based. Here is the method:
as §1

For another test, the system named is 8226 cells. The test can be described thus: In vitro antiproliferative assay (CCK-8). Format: cell-based. Conditions: 8226, without BRCA mutations; CCK-8, 72 h; mean of three. Here is the method:
as §1

The subject of a further test is Capan-1 cells. Briefly: In vitro antiproliferative assay (CCK-8). Type of test: cell-based. To be noted: Homo sapiens; Capan-1, BRCA-mutated; CCK-8, 72 h; mean of three. The protocol: as §1
Another test relates to CH151 cells. The test can be described thus: In vitro antiproliferative assay (CCK-8). To be noted: CH151, without BRCA mutations; CCK-8, 72 h; mean of three. Format: cell-based. Here is the method: as §1
For a further test, the system named is SKOV3 cells. Briefly: In vitro antiproliferative assay (CCK-8). To be noted: Homo sapiens, SK-OV-3; SKOV3, without BRCA mutations; CCK-8, 72 h; mean of three. Type of test: cell-based. The protocol:
as §1

For another test, the system named is A549 cells. Briefly: In vitro antiproliferative assay (CCK-8). Conditions: Homo sapiens; A549, without BRCA mutations; CCK-8, 72 h; mean of three. Type of test: cell-based. Here is the method: as §1
The next test has as its system U87 cells. Briefly: In vitro antiproliferative assay (CCK-8). Type of test: cell-based. To be noted: Homo sapiens, U-87 MG; U87, without BRCA mutations; CCK-8, 72 h; mean of three. The protocol:
as §1

For another test, the system named is Raji cells. The test can be described thus: In vitro antiproliferative assay (CCK-8). Format: cell-based. Conditions: Homo sapiens, without BRCA mutations, CCK-8, 72 h, mean of three. The protocol: as §1
The next test concerns B16 cells. Briefly: In vitro antiproliferative assay (CCK-8). Type of test: cell-based. Conditions: Mus musculus; B16, without BRCA mutations; CCK-8, 72 h; mean of three. Here is the method:
as §1

The test system of the next test is U251 cells. Briefly: In vitro antiproliferative assay (CCK-8). Type of test: cell-based. Conditions: Homo sapiens, U-251; U251, without BRCA mutations; CCK-8, 72 h; mean of three. Here is the method:
as §1

Another test has as its system MDA-MB-231 cells. The test can be described thus: In vitro antiproliferative assay (CCK-8). Type of test: cell-based. Conditions: Homo sapiens; MDA-MB-231, without BRCA mutations; CCK-8, 72 h; mean of three. Here is the method: as §1
For a further test, the system named is MDA-MB-436 cells. The test can be described thus: In vitro antiproliferative assay (CCK-8). Type of test: cell-based. To be noted: Homo sapiens; MDA-MB-436, BRCA-mutated; CCK-8, 72 h; mean of three. The protocol:
as §1

The subject of the next test is K562 cells. The test can be described thus: In vitro antiproliferative assay (CCK-8). Type of test: cell-based. Conditions: Homo sapiens; K562, without BRCA mutations; CCK-8, 72 h; mean of three. The protocol: as §1
Another test deals with MCF-7 cells. The test can be described thus: In vitro antiproliferative assay (CCK-8). Type of test: cell-based. Conditions: Homo sapiens, MCF7; MCF-7, without BRCA mutations; CCK-8, 72 h; mean of three. The protocol: as §1

PARP1, sequence (P09874 whole entry): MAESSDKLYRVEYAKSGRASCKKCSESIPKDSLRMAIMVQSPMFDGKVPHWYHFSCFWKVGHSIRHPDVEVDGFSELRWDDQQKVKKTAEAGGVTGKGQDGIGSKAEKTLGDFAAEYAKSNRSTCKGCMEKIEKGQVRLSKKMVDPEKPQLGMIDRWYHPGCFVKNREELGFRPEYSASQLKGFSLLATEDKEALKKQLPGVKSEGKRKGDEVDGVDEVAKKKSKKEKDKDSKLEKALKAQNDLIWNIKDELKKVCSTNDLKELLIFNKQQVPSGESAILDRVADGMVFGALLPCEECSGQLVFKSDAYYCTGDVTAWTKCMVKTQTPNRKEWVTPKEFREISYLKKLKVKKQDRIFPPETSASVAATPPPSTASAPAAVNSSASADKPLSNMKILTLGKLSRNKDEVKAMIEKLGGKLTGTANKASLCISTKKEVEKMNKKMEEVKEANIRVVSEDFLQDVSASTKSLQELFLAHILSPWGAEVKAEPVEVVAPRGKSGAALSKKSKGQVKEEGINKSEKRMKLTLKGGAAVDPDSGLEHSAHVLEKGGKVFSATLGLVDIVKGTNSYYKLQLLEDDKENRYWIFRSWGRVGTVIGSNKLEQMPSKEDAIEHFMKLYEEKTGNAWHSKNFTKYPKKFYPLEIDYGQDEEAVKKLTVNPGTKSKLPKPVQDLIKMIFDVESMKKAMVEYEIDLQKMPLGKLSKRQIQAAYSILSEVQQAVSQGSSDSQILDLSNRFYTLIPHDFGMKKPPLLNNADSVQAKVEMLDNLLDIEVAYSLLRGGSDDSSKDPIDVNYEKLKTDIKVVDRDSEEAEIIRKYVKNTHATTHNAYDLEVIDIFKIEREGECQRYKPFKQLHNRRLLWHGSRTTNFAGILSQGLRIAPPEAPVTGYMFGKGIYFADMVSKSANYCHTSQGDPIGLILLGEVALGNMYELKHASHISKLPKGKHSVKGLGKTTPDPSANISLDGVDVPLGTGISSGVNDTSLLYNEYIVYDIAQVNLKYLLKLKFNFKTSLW

Turning to `O=C(c1ccc(F)cc1)N1CCN(Cc2cc(Cc3n[nH]c(=O)c4ccccc34)ccc2F)CC1` [A1, 4-(4-Fluoro-3-((4-(4-fluorobenzoyl)piperazin-1-yl)methyl)benzyl)phthalazin-1(2H)-one], 31.2 ± 2.4 nM corresponded to half-maximal inhibition at PARP1 (Table 1, A series) (IC50).

`O=C(c1ccccc1F)N1CCN(Cc2cc(Cc3n[nH]c(=O)c4ccccc34)ccc2F)CC1` [A2, 4-(4-Fluoro-3-((4-(2-fluorobenzoyl)piperazin-1-yl)methyl)benzyl)phthalazin-1(2H)-one] displayed an IC50 at PARP1 (Table 1, A series) of 29.4 ± 2.2 nM.

In turn, `O=C(c1cccc(F)c1)N1CCN(Cc2cc(Cc3n[nH]c(=O)c4ccccc34)ccc2F)CC1` [A3, 4-(4-Fluoro-3-((4-(3-fluorobenzoyl)piperazin-1-yl)methyl)benzyl)phthalazin-1(2H)-one] displayed an IC50 on PARP1 (Table 1, A series) of 17.6 ± 1.3 nM.

On PARP1 (Table 1, A series), `O=C(c1ccc(C(F)(F)F)cc1)N1CCN(Cc2cc(Cc3n[nH]c(=O)c4ccccc34)ccc2F)CC1` [A4, 4-(4-Fluoro-3-((4-(4-(trifluoromethyl)benzoyl)piperazin-1-yl)methyl)benzyl)phthalazin-1(2H)-one] returned an IC50 of 42.2 ± 4.1 nM.

For `O=C(c1ccccc1C(F)(F)F)N1CCN(Cc2cc(Cc3n[nH]c(=O)c4ccccc34)ccc2F)CC1` [A5, 4-(4-Fluoro-3-((4-(2-(trifluoromethyl)benzoyl)piperazin-1-yl)methyl)benzyl)phthalazin-1(2H)-one], on PARP1 (Table 1, A series), the IC50 turned out to be 33.2 ± 3.1 nM.

Regarding `O=C(c1cccc(C(F)(F)F)c1)N1CCN(Cc2cc(Cc3n[nH]c(=O)c4ccccc34)ccc2F)CC1` [A6, 4-(4-Fluoro-3-((4-(3-(trifluoromethyl)benzoyl)piperazin-1-yl)methyl)benzyl)phthalazin-1(2H)-one], the IC50 at PARP1 (Table 1, A series) was > 50 nM.

Turning to `O=C(c1ccccc1Cl)N1CCN(Cc2cc(Cc3n[nH]c(=O)c4ccccc34)ccc2F)CC1` [A7, 4-(3-((4-(2-Chlorobenzoyl)piperazin-1-yl)methyl)-4-fluorobenzyl)phthalazin-1(2H)-one], the IC50 on PARP1 (Table 1, A series) is 24.6 ± 2.1 nM.

For `O=C(c1cccc(Br)c1)N1CCN(Cc2cc(Cc3n[nH]c(=O)c4ccccc34)ccc2F)CC1` [A8, 4-(3-((4-(3-Bromobenzoyl)piperazin-1-yl)methyl)-4-fluorobenzyl)phthalazin-1(2H)-one], the IC50 against PARP1 (Table 1, A series) amounted to 22.5 ± 2.1 nM.

At PARP1 (Table 1, A series), `Cc1ccccc1C(=O)N1CCN(Cc2cc(Cc3n[nH]c(=O)c4ccccc34)ccc2F)CC1` [A9, 4-(4-Fluoro-3-((4-(2-methylbenzoyl)piperazin-1-yl)methyl)benzyl)phthalazin-1(2H)-one] gave a half-inhibitory concentration (IC50) of 12.6 ± 1.1 nM.

On to `CCc1ccc(C(=O)N2CCN(Cc3cc(Cc4n[nH]c(=O)c5ccccc45)ccc3F)CC2)cc1` [A10, 4-(3-((4-(4-Ethylbenzoyl)piperazin-1-yl)methyl)-4-fluorobenzyl)phthalazin-1(2H)-one], for which the IC50 against PARP1 (Table 1, A series) was 21.4 ± 1.4 nM.

`COc1ccccc1C(=O)N1CCN(Cc2cc(Cc3n[nH]c(=O)c4ccccc34)ccc2F)CC1` [A11, 4-(4-Fluoro-3-((4-(2-methoxybenzoyl)piperazin-1-yl)methyl)benzyl)phthalazin-1(2H)-one]: inhibition against PARP1 (Table 1, A series) was half-maximal at 29.4 ± 2.3 nM (IC50).

As for `O=C(c1ccccc1)N1CCN(Cc2cc(Cc3n[nH]c(=O)c4ccccc34)ccc2F)CC1` [A12, 4-(3-((4-Benzoylpiperazin-1-yl)methyl)-4-fluorobenzyl)phthalazin-1(2H)-one], the half-maximal inhibitory concentration (IC50) against PARP1 (Table 1, A series) is > 50 nM.

Consider `COc1ccc(C(=O)N2CCN(Cc3cc(Cc4n[nH]c(=O)c5ccccc45)ccc3F)CC2)cc1` [A13, 4-(4-Fluoro-3-((4-(4-methoxybenzoyl)piperazin-1-yl)methyl)benzyl)phthalazin-1(2H)-one], for which the IC50 against PARP1 (Table 1, A series) was > 50 nM.

Regarding `NC(=O)C1CCN(Cc2cc(Cc3n[nH]c(=O)c4ccccc34)ccc2F)CC1` [A14, 1-(2-Fluoro-5-((4-oxo-3,4-dihydrophthalazin-1-yl)methyl)benzyl)piperidine-4-carboxamide], the concentration for half-maximal inhibition (IC50) on PARP1 (Table 1, A series) was > 50 nM.

For the compound `O=c1[nH]nc(Cc2ccc(F)c(CN3CCN(Cc4ccc5c(c4)OCO5)CC3)c2)c2ccccc12` [A15, 4-(3-((4-(Benzo[d][1,3]dioxol-5-ylmethyl)piperazin-1-yl)methyl)-4-fluorobenzyl)phthalazin-1(2H)-one], the IC50 against PARP1 (Table 1, A series) was > 50 nM.

Turning to `O=c1[nH]nc(Cc2ccc(F)c(CN3CCC(N4CCCCC4)CC3)c2)c2ccccc12` [A16, 4-(3-([1,4′-Bipiperidin]-1′-ylmethyl)-4-fluorobenzyl)phthalazin-1(2H)-one], the half-inhibitory concentration (IC50) against PARP1 (Table 1, A series) is > 50 nM.

On to `COC(=O)C1CCN(Cc2cc(Cc3n[nH]c(=O)c4ccccc34)ccc2F)CC1` [A17, Methyl1-(2-fluoro-5-((4-oxo-3,4-dihydrophthalazin-1-yl)methyl)benzyl)piperidine-4-carboxylate], for which the IC50 on PARP1 (Table 1, A series) was > 50 nM.

As to `O=c1[nH]nc(Cc2ccc(F)c(CN3CCC(Cc4ccccc4)CC3)c2)c2ccccc12` [A18, 4-(3-((4-Benzylpiperidin-1-yl)methyl)-4-fluorobenzyl)phthalazin-1(2H)-one], the IC50 against PARP1 (Table 1, A series) is > 50 nM.

For the compound `O=C(c1ccc2c(c1)OCO2)N1CCN(Cc2cc(Cc3n[nH]c(=O)c4ccccc34)ccc2F)CC1` [A20, 4-(3-((4-(Benzo[d][1,3]dioxole-5-carbonyl)piperazin-1-yl)methyl)-4-fluorobenzyl)phthalazin-1(2H)-one], at PARP1 (Table 1, A series), the 50% inhibitory concentration (IC50) stood at 12.6 ± 0.9 nM.

For `O=C(C1CC1)N1CCN(Cc2cc(Cc3n[nH]c(=O)c4ccccc34)ccc2F)CC1` [A21, 4-(3-((4-(Cyclopropanecarbonyl)piperazin-1-yl)methyl)-4-fluorobenzyl)phthalazin-1(2H)-one], half-maximal inhibition against PARP1 (Table 1, A series) (IC50) required 8.4 ± 0.4 nM.

With `O=C(C1CCC(F)(F)CC1)N1CCN(Cc2cc(Cc3n[nH]c(=O)c4ccccc34)ccc2F)CC1` [A22, 4-(3-((4-(4,4-Difluorocyclohexane-1-carbonyl)piperazin-1-yl)methyl)-4-fluorobenzyl) phthalazin-1(2H)-one], inhibition at PARP1 (Table 1, A series) was half-maximal at 9.3 ± 0.3 nM (IC50).

For `O=C(C1CCCCC1)N1CCN(Cc2cc(Cc3n[nH]c(=O)c4ccccc34)ccc2F)CC1` [A23, 4-(3-((4-(Cyclohexanecarbonyl)piperazin-1-yl)methyl)-4-fluorobenzyl)phthalazin-1(2H)-one], the midpoint of inhibition against PARP1 (Table 1, A series), the IC50, lay at 10.1 ± 0.6 nM.

For `CCCCNNC(=O)c1cc(Cc2n[nH]c(=O)c3ccccc23)ccc1F` [B3, N′-butyl-2-fluoro-5-((4-oxo-3,4-dihydrophthalazin-1-yl)methyl)benzohydrazide], the IC50 on PARP1 (Table 2, B and C series) is 2.8 ± 0.1 nM; in the test with SW620 cells, > 100000 nM; in the test with HCC1937 cells, > 1000 nM; with Hela cells, > 100000 nM; in the test with 8226 cells, > 100000 nM; in the test on Capan-1 cells, > 1000 nM. Besides, the IC50 in the test on CH151 cells, in the test with SKOV3 cells, in the test with A549 cells, in the test with U87 cells, in the test with Raji cells and in the test with B16 cells was > 100000 nM each time. Moreover, the IC50 was > 100000 nM in the test on U251 cells; > 100000 nM in the test with MDA-MB-231 cells; > 1000 nM with MDA-MB-436 cells; > 20000 nM with K562 cells; > 100000 nM with MCF-7 cells.

As to `CC(C)CNNC(=O)c1cc(Cc2n[nH]c(=O)c3ccccc23)ccc1F` [B4, 2-Fluoro-N′-isobutyl-5-((4-oxo-3,4-dihydrophthalazin-1-yl)methyl)benzohydrazide], on PARP1 (Table 2, B and C series), the IC50 came to 11.8 ± 1.3 nM.

Turning to `CCCCCNNC(=O)c1cc(Cc2n[nH]c(=O)c3ccccc23)ccc1F` [B5, 2-Fluoro-5-((4-oxo-3,4-dihydrophthalazin-1-yl)methyl)-N′-pentylbenzohydrazide], half-maximal inhibition against PARP1 (Table 2, B and C series) (IC50) was put at 5.2 ± 0.4 nM.

In turn, `CCCCCCNNC(=O)c1cc(Cc2n[nH]c(=O)c3ccccc23)ccc1F` [B6, 2-Fluoro-N′-hexyl-5-((4-oxo-3,4-dihydrophthalazin-1-yl)methyl)benzohydrazide] yielded an IC50 at PARP1 (Table 2, B and C series) of 9.4 ± 0.8 nM.
